Like-named read-outs stand apart in the source and are kept apart here.
What was measured:
Experiment in all cases: competition with […]benzylpenicillin for PBPs
Format in all cases: binding
[1] = molecular target: T1, PBP2 of E. coli NIHJ JC-2 (Escherichia coli, UniProt P0AD65); conditions: covalent
T1 construct: gene mrdA
T1 sequence (P0AD65 1-633): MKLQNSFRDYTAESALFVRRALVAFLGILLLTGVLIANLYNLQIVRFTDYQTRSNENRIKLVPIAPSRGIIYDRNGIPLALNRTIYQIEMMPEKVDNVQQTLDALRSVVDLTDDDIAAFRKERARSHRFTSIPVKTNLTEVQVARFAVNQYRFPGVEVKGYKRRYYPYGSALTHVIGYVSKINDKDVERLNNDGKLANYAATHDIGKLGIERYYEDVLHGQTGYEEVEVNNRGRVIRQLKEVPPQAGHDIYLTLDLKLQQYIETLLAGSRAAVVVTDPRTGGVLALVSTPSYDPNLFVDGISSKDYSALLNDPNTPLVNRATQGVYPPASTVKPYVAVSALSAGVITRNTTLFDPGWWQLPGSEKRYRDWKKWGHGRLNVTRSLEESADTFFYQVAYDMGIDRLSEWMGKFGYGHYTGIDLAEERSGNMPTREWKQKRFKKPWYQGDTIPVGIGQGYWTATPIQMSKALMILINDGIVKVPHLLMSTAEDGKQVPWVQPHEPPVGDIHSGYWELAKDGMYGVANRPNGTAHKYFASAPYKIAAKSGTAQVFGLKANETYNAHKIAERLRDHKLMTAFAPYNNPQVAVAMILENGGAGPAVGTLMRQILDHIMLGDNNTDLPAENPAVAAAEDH

[2] = molecular target: T2, PBP1b of E. coli NIHJ JC-2 (Escherichia coli, UniProt P02919); conditions: covalent
T2 construct: gene mrcB

[3] = molecular target: T3, PBP1a of E. coli NIHJ JC-2 (Escherichia coli, UniProt P02918); conditions: covalent
T3 construct: gene mrcA

[4] = molecular target: T4, PBP2 of P. aeruginosa ATCC 27853 (Pseudomonas aeruginosa, UniProt Q9X6V3); conditions: covalent; read-out: IC50 (μg/ml) / E. coli NIHJ JC-2 / Ceftazidime
T4 construct: gene pbpA
T4 sequence (Q9X6V3 1-646): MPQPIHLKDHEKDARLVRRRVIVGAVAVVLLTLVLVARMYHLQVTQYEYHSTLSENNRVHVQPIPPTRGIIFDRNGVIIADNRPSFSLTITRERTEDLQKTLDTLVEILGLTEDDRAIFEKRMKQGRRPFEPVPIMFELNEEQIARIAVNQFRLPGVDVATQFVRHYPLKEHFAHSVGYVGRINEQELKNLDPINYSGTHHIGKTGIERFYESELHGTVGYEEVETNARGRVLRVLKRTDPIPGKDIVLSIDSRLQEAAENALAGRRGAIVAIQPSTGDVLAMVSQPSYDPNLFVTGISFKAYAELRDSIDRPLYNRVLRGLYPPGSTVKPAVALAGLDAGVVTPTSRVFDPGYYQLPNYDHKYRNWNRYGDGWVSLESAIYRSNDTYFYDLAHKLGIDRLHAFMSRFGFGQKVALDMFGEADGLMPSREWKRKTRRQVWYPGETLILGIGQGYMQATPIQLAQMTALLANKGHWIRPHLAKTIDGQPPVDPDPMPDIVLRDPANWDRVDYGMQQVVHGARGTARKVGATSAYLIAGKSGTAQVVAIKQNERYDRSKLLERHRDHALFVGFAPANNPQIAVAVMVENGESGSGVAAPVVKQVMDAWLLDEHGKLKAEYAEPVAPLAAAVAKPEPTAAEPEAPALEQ

[5] = molecular target: T5, PBP3 of K. pneumoniae SR22291 (Klebsiella pneumoniae, UniProt A0A0H3GN85); conditions: covalent
T5 construct: gene ftsI
T5 sequence (A0A0H3GN85 1-588): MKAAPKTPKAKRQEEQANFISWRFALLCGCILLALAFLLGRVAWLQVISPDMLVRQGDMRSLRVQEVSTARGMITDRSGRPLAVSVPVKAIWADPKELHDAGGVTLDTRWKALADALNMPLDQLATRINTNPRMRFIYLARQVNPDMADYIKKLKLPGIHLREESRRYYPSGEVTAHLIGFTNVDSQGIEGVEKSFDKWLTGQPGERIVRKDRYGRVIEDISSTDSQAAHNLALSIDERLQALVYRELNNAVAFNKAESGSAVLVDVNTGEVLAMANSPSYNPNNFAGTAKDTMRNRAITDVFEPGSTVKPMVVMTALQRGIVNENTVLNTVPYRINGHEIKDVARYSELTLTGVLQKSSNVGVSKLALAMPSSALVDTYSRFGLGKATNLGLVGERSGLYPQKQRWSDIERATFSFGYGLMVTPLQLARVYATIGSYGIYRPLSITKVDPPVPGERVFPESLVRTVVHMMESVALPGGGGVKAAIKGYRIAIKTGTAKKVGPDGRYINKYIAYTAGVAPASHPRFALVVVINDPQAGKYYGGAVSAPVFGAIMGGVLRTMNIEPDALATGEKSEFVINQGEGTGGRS

[6] = molecular target: T6, PBP4 of K. pneumoniae SR22291 (Klebsiella pneumoniae, UniProt A6TEK1); conditions: covalent
T6 construct: gene dacB
T6 sequence (A6TEK1 21-477): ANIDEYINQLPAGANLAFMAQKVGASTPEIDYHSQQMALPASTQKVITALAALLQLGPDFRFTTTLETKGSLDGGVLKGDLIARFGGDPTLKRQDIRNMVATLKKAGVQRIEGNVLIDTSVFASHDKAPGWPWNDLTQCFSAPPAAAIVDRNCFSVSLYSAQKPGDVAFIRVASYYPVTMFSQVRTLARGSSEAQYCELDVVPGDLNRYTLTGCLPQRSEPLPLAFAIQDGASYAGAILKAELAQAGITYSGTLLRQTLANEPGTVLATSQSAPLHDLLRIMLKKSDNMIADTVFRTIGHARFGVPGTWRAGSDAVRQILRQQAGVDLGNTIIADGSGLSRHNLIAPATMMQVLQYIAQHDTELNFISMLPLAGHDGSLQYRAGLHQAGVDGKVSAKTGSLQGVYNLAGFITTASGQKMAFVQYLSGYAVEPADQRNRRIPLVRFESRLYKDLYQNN

[7] = molecular target: T7, PBP3 of E. coli NIHJ JC-2 (Escherichia coli, UniProt P0AD68); conditions: covalent
T7 construct: gene ftsI

[8] = read-out: IC50 (μg/ml) / E. coli NIHJ JC-2 / Ceftazidime
[9] = read-out: IC50 (μg/ml) / K. pneumoniae SR22291 / Ceftazidime (converted)
[10] = read-out: IC50 (μg/ml) / E. coli NIHJ JC-2 / Cefiderocol (converted)
[11] = read-out: IC50 (μg/ml) / K. pneumoniae SR22291 / Cefiderocol (converted)

T7 sequence (P0AD68 1-577): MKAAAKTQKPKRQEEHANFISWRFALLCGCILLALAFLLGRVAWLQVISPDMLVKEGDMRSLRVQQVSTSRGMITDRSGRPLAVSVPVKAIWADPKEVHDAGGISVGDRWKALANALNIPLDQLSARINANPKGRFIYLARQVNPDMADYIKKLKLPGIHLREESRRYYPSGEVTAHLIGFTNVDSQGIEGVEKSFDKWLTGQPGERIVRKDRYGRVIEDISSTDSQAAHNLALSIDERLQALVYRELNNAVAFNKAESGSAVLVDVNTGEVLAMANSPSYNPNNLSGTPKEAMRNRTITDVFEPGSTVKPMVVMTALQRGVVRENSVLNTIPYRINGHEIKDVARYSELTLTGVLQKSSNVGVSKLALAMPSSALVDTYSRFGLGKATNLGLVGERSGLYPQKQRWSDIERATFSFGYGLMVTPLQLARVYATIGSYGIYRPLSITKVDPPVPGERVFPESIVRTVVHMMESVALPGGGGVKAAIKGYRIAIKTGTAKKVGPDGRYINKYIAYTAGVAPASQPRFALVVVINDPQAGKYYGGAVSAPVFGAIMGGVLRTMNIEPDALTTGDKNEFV
T3 sequence (P02918 whole entry): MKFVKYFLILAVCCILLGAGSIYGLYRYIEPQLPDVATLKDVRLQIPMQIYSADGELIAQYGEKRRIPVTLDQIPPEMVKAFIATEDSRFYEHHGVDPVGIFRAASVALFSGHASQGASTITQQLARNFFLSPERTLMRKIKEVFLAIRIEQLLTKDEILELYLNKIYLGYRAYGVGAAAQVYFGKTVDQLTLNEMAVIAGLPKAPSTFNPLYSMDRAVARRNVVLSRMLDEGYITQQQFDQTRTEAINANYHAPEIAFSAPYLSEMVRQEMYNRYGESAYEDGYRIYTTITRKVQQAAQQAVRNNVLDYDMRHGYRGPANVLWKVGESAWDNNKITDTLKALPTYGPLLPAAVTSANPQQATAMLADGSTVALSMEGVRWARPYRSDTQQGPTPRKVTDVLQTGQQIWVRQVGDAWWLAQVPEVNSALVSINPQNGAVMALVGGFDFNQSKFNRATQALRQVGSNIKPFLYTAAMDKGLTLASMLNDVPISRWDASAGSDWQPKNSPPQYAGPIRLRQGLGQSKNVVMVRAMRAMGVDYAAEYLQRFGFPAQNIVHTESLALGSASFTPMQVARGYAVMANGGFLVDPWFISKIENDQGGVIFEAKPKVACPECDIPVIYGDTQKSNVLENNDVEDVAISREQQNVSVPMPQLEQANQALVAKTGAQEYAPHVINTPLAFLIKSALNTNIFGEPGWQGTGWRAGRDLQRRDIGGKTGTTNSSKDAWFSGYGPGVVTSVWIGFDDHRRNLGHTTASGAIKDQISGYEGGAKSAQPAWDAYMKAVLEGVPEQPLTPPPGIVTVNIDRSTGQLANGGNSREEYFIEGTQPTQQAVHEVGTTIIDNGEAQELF
T2 sequence (P02919 whole entry): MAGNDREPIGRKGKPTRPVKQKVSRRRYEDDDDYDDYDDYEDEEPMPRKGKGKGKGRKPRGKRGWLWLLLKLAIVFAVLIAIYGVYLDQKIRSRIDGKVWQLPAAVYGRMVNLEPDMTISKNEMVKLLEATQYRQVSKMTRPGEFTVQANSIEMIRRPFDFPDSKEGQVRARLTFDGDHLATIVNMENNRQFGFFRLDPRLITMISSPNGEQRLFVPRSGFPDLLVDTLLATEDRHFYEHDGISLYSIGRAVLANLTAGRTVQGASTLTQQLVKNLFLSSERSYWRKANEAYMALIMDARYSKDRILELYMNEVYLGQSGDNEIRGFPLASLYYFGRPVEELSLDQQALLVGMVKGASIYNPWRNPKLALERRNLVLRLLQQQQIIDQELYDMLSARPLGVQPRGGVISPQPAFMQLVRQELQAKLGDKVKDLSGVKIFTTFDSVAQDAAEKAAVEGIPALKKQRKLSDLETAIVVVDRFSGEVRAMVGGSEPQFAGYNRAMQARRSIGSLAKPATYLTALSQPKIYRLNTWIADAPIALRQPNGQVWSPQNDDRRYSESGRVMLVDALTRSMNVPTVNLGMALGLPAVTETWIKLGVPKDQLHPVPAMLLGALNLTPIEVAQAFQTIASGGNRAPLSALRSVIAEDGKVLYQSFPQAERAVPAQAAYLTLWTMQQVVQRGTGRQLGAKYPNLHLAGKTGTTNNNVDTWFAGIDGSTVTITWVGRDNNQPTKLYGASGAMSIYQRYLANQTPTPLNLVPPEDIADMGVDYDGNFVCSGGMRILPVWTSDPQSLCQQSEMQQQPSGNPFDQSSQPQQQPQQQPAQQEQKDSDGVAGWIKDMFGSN

Row | Structure (SMILES) | IC50 [1, 8] [nM] | IC50 [2, 8] [nM] | IC50 [3, 8] [nM] | IC50 [4] [nM] | IC50 [5, 9] [nM] | IC50 [6, 9] [nM] | IC50 ([7]; read-out: IC50 (μg/ml) / E. coli NIHJ JC-2 / Ceftazidime (converted)) [nM] | IC50 [1, 10] [nM] | IC50 [2, 10] [nM] | IC50 [3, 10] [nM] | IC50 [5, 11] [nM] | IC50 [6, 11] [nM] | IC50 [7, 10] [nM]
1 | CC(C)(O/N=C(\C(=O)N[C@@H]1C(=O)N2C(C(=O)[O-])=C(C[n+]3ccccc3)CS[C@H]12)c1csc(N)n1)C(=O)O [ceftazidime] | > 7320 | > 7320 | > 7320 | > 7320 | 402 | 6590 | 823 |  |  |  |  |  | 
2 | CC(C)(O/N=C(\C(=O)N[C@@H]1C(=O)N2C(C(=O)[O-])=C(C[N+]3(CCNC(=O)c4ccc(O)c(O)c4Cl)CCCC3)CS[C@H]12)c1csc(N)n1)C(=O)O [cefiderocol] |  |  |  | > 5320 |  |  |  | 2820 | 4480 | 5050 | 82.4 | 372 | 53.2
